A word on the IC50: it is the concentration at which inhibition is half-maximal.

The values below come from patent US5739123A, “Phosphinic acid derivatives with metallopeptidase inhibitory activity” (Zambon Group S.p.A., priority 1994, dated 1998).

The target in one test is T1, ACE (Oryctolagus cuniculus, UniProt P12822).
T1 construct: purchased SIGMA; host or cells: rabbit lung (purified)
T1 sequence (P12822 34-1310): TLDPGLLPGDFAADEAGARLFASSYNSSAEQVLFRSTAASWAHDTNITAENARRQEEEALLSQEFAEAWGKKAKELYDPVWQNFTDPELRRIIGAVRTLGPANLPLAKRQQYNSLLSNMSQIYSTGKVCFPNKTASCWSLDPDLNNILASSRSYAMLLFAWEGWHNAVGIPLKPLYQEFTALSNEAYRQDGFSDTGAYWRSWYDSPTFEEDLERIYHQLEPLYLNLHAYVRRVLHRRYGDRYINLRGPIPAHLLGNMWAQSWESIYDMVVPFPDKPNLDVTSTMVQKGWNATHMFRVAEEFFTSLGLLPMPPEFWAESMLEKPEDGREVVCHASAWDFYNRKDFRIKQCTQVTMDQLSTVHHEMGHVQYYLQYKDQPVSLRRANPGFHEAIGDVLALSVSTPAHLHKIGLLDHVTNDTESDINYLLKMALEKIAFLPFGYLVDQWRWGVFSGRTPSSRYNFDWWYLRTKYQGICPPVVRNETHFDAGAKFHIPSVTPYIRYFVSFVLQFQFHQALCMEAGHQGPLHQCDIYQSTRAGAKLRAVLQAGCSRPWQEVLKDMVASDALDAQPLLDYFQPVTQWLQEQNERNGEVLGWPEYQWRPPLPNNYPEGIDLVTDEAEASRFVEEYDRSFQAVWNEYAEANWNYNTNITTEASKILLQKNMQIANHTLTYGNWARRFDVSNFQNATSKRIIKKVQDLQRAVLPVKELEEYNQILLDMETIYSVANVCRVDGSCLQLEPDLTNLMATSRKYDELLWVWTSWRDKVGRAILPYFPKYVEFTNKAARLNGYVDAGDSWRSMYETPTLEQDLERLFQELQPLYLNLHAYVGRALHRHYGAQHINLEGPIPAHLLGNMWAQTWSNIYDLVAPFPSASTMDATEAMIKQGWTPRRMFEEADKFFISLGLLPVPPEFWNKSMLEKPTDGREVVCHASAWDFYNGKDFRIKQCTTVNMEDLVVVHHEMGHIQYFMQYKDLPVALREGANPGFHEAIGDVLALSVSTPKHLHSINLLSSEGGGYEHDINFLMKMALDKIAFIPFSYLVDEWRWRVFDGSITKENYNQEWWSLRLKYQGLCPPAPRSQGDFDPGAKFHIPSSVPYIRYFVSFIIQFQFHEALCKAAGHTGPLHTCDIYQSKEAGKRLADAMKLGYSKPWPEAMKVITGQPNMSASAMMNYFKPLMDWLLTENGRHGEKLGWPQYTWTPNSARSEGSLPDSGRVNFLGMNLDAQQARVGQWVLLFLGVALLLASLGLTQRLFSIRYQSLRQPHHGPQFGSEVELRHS
Kind of test: ACE-inhibitory activity, in vitro (FAPGG substrate). It counts as biochemical. The note with it: ACE purified from lung rabbit; FAPGG 0.8 mM; 37° C.; 340 nm, 5 minutes; tested as lithium or sodium salts. As to the method: The ACE-inhibitory activity was evaluated according to the method reported in the literature by B. Holmquist et al., in Analytical Biochemistry 95, 540-548 (1979).
[…] of ACE (250 mU/ml purified by lung rabbit, EC 3.4.15.1 SIGMA) with 50 μl of the compound of formula I were preincubated in thermostated cuvettes at 37° C.
The reaction was started by adding furylacryloylphenylalanylglycylglycine 0.8 mM (FAPGG-SIGMA).
Contemporaneously, by using a Beckman DU-50 spectrophotometer provided with a program for calculating delta A/minutes and regression coefficients of the enzyme kinetics curves, the absorbance at 340 nm was recorded in continuo for 5 minutes.
The percentage of the enzyme inhibition in the preparations treated with the compounds of formula I with respect to the untreated preparations was expressed as IC50 value (nM).
(§1) The compounds of formula I were tested in the form of lithium or sodium salts.

The target in the next test is T2, NEP (Rattus norvegicus, UniProt P07861).
T2 construct: Membranes from kidney cortex were prepared; from tissue; host or cells: kidney cortex membranes of male Sprague-Dawley rats
T2 sequence (P07861 1-750): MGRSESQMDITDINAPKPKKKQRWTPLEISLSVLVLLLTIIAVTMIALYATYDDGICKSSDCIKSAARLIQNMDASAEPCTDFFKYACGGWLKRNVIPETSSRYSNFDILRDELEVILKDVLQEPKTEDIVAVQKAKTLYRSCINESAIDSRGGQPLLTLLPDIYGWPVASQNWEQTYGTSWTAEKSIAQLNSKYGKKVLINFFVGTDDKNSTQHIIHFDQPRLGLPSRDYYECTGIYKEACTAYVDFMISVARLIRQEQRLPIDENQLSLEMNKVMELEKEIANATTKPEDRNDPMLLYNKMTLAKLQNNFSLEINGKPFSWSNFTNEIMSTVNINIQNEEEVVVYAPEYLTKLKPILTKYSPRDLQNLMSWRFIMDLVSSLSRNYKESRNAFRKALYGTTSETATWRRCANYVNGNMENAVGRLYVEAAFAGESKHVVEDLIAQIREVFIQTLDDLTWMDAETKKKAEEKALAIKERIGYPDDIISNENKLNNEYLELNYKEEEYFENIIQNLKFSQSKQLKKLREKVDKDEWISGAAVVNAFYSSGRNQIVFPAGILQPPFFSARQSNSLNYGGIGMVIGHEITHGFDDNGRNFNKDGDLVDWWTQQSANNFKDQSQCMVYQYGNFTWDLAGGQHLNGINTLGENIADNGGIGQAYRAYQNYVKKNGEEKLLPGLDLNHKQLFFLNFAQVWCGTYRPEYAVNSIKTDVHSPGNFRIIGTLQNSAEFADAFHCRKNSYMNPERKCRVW
The test is described as follows: NEP-inhibitory activity, in vitro (kidney cortex membranes, [3H][Leu5]-enkephaline substrate). The class given is biochemical, male Sprague-Dawley rats. To be noted: rat kidney cortex membranes 5 μg/ml of proteins; [3H][Leu5]-enkephaline 15 nM; pH 7.4; 20 minutes at 30° C.; tested as lithium or sodium salts. As to the method:
The NEP-inhibitory activity was evaluated according to the method reported in the literature by C. Llorens et al., in Eur. J. Pharmacol., 69, (1981), 113-116.
Membranes from kidney cortex were prepared according to the following procedure.
By working at 0°-4° C., kidneys were removed from male Sprague-Dawley rats weighing approximately 300 g.
Cortex was carefully dissected, finely minced and suspended in a homogenization buffer (10 mM sodium phosphate pH 7.4 containing 1 mM MgCl2, 30 mM NaCl, 0.02% NAN3) 1:15 weight/volume.
The tissue was then homogenized for 30 seconds using an Ultra-Turrax homogenizer.
Approximately 10 ml of homogenate were layered over 10 ml of sucrose (41% weight/volume) and centrifuged at 31200 rpm for 30 minutes at 4° C. in a fixed angle rotor.
The membranes were collected from the buffer/sucrose interface, washed twice with 50 mM TRIS/HCl buffer (pH 7.4) and resuspended into the same buffer for storage.
The membranes were stored in small aliquots at -80° C. until use. The NEP-inhibitory activity was evaluated by using the following method.
Aliquots of the membrane suspension prepared as above described (concentration 5 μg/ml of proteins) were preincubated in the presence of an aminopeptidase inhibitor (Bestatin--1 mM) for 10 minutes at 30° C.
[^3 H][Leu^5 ]-enkephaline (15 nM) and buffer TRIS/HCl pH 7.4 (50 mM) were added in order to obtain a final volume of 100 μl. Incubation (20 minutes at 30° C.) was stopped by adding HCl 0.1M (100 μl).
The formation of the metabolite [^3 H]Tyr-Gly-Gly was quantified by chromatography on polystyrene columns (Porapak Q). The percentage of inhibition of the metabolite formation in the membrane preparations treated with the compounds of formula I, in comparison to the untreated membrane preparations, was expressed as IC50 value (nM).
as §1

For the next test, the system named is thermolysin. To be noted: J. Am. Chem. Soc. 1991, 113, 297-307; cited from earlier work.

Structures can show the parent of a compound that is named as a salt.

For the compound `CC(C)CC(CP(=O)(O)CNC(=O)c1ccccc1)C(=O)N[C@@H](Cc1ccc(-c2ccccc2)cc1)C(=O)O` (stereo partly drawn) [Compound 6, N-[3-[(benzoylaminomethyl)(hydroxy)phosphinyl]-2-isobutyl-propionyl]-(1,1'-biphenyl-4-yl)-L-alanine], the IC50 on ACE turned out to be 4.6 nM; at NEP it was 7.7 nM.

In the case of `CC(C)CC(CP(=O)(O)CCCCc1ccccc1)C(=O)N[C@@H](Cc1ccc(-c2ccccc2)cc1)C(=O)O` (stereo partly drawn) [Compound 2, N-[3-[(4-phenylbutyl)(hydroxy)phosphinyl]-2-isobutyl-propionyl]-(1,1'-biphenyl-4-yl)-L-alanine disodium salt], the results for the IC50 on ACE and on NEP were 24 nM and 220 nM, respectively.

Take `CC(C)CC(CP(=O)(O)CNC(=O)Cc1ccccc1)C(=O)N[C@@H](Cc1ccc(-c2ccccc2)cc1)C(=O)O` (stereo partly drawn) [Compound 7, N-[3-[(phenylacetylaminomethyl)(hydroxy)phosphinyl]-2-isobutyl-propionyl]-(1,1'-biphenyl-4-yl)-L-alanine]: the IC50 was 183 nM at ACE and 30.1 nM on NEP.

Consider `CC(C)CC(CP(=O)(O)CCCc1ccccc1)C(=O)N[C@@H](Cc1ccc(-c2ccccc2)cc1)C(=O)O` (stereo partly drawn) [Compound 1, N-[3-[(3-phenylpropyl)(hydroxy)phosphinyl]-2-isobutyl-propionyl]-(1,1'-biphenyl-4-yl)-L-alanine dilithium salt], for which the figures for the IC50 at ACE and at NEP were 70 nM and 368 nM, respectively.

For `CC(C)CC(CP(=O)(O)CNC(=O)OCc1ccccc1)C(=O)NC(Cc1ccccc1)C(=O)O` (stereo not drawn), in the test with thermolysin, the “inhibitory activity towards thermolysin (in words)” value is “endowed with inhibitory activity towards thermolysin”.
